In PubChem BioAssay AID2060887 (Molecular Pharmacology Branch, DTP, NCI, 2025):
pIC50: −log10 of the molar value.

Test system: 782815-120-R-J1-PDC complex spheroid viability
Assay: Anticancer human tumor 782815-120-R-J1-PDC patient-derived colon adenocarcinoma cell line growth inhibition [RAS]
Details: for pIC50: curve of first compound; for viability, T/C: stronger effect = lower value; active = viability on the fitted dose curve at most 10% of control; inactive = the rest
Method in brief: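 Multi-cell-type spheroids: tumor cells plus HUVEC endothelial cells and mesenchymal stem cells. RAS-pathway inhibitors were combined with targeted agents, each dosed in half-log steps down from clinical Cmax, or from 10 microM when Cmax was unknown.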

[1] = second compound 0.0316 µM, first compound 0.00316 µM
[2] = second compound 0.0316 µM, first compound 0.01 µM
[3] = second compound 0.0316 µM, first compound 0.0316 µM
[4] = second compound 0.0316 µM, first compound 0.1 µM
[5] = second compound 0.0316 µM, first compound 0.316 µM
[6] = second compound 0.0316 µM, first compound 1 µM
[7] = second compound 0.1 µM, first compound 0.00316 µM
[8] = second compound 0.1 µM, first compound 0.01 µM
[9] = second compound 0.1 µM, first compound 0.0316 µM
[10] = second compound 0.1 µM, first compound 0.1 µM
[11] = second compound 0.1 µM, first compound 0.316 µM
[12] = second compound 0.1 µM, first compound 1 µM
[13] = second compound 0.316 µM, first compound 0.00316 µM
[14] = second compound 0.316 µM, first compound 0.01 µM
[15] = second compound 0.316 µM, first compound 0.0316 µM
[16] = second compound 0.316 µM, first compound 0.1 µM
[17] = second compound 0.316 µM, first compound 0.316 µM
[18] = second compound 0.316 µM, first compound 1 µM
[19] = second compound 1 µM, first compound 0.00316 µM
[20] = second compound 1 µM, first compound 0.01 µM
[21] = second compound 1 µM, first compound 0.0316 µM
[22] = second compound 1 µM, first compound 0.1 µM
[23] = second compound 1 µM, first compound 0.316 µM
[24] = second compound 1 µM, first compound 1 µM
[25] = second compound 0.00316 µM, first compound 0.00316 µM
[26] = second compound 0.00316 µM, first compound 0.01 µM
[27] = second compound 0.00316 µM, first compound 0.0316 µM
[28] = second compound 0.00316 µM, first compound 0.1 µM
[29] = second compound 0.00316 µM, first compound 0.316 µM
[30] = second compound 0.00316 µM, first compound 1 µM
[31] = second compound 0.01 µM, first compound 0.00316 µM
[32] = second compound 0.01 µM, first compound 0.01 µM
[33] = second compound 0.01 µM, first compound 0.0316 µM
[34] = second compound 0.01 µM, first compound 0.1 µM
[35] = second compound 0.01 µM, first compound 0.316 µM
[36] = second compound 0.01 µM, first compound 1 µM
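Note: spheroids exposed to compounds for 7 days before reading.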
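Throughout, for viability, T/C: 100% = DMSO vehicle control viability.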

C=CC(=O)N1CCN(c2nc(OCC3CCCN3C)nc3c(F)c(-c4nc(N)cc(C)c4C(F)(F)F)c(Cl)cc23)C(C)C1 (stereo not drawn) + C#Cc1c(F)ccc2cc(O)cc(-c3ncc4c(N5CC6CCC(C5)N6)nc(OCC56CCCN5CC(F)C6)nc4c3F)c12
< 6.00: pIC50 (second compound 0.0316 µM) | pIC50 (second compound 0.1 µM) | pIC50 (second compound 0.316 µM) | pIC50 (second compound 1 µM) | pIC50 (second compound 3.16 µM) | pIC50 (second compound 10 µM)
inactive: viability, T/C [1] 98.9% | viability, T/C [2] 86.9% | viability, T/C [3] 103% | viability, T/C [4] 92.5% | viability, T/C [5] 96.9% | viability, T/C [6] 97% | viability, T/C [7] 97.3% | viability, T/C [8] 93.1% | viability, T/C [9] 97.5% | viability, T/C [10] 94% | viability, T/C [11] 97% | viability, T/C [12] 101% | viability, T/C [13] 92.6% | viability, T/C [14] 94.7% | viability, T/C [15] 89.2% | viability, T/C [16] 91.8% | viability, T/C [17] 98.4% | viability, T/C [18] 84.4% | viability, T/C [19] 95.5% | viability, T/C [20] 94.6% | viability, T/C [21] 94% | viability, T/C [22] 99.2% | viability, T/C [23] 101% | viability, T/C [24] 98.3% | viability, T/C (second compound 3.16 µM, first compound 0.00316 µM) 97.3% | viability, T/C (second compound 3.16 µM, first compound 0.01 µM) 91.7% | viability, T/C (second compound 3.16 µM, first compound 0.0316 µM) 95.9% | viability, T/C (second compound 3.16 µM, first compound 0.1 µM) 105% | viability, T/C (second compound 3.16 µM, first compound 0.316 µM) 101% | viability, T/C (second compound 3.16 µM, first compound 1 µM) 90.5% | viability, T/C (second compound 10 µM, first compound 0.00316 µM) 106% | viability, T/C (second compound 10 µM, first compound 0.01 µM) 104% | viability, T/C (second compound 10 µM, first compound 0.0316 µM) 93.6% | viability, T/C (second compound 10 µM, first compound 0.1 µM) 99.6% | viability, T/C (second compound 10 µM, first compound 0.316 µM) 104% | viability, T/C (second compound 10 µM, first compound 1 µM) 91.1%

CC1(C)CCC(Nc2ncc(C(F)(F)F)c(-c3c[nH]c4c(P(C)(C)=O)c(C#N)ccc34)n2)CN1 (stereo not drawn) + C#Cc1c(F)ccc2cc(O)cc(-c3ncc4c(N5CC6CCC(C5)N6)nc(OCC56CCCN5CC(F)C6)nc4c3F)c12
inactive: viability, T/C (second compound 0.0316 µM, first compound 0.000949 µM) 98.2% | viability, T/C (second compound 0.0316 µM, first compound 0.003 µM) 101% | viability, T/C (second compound 0.0316 µM, first compound 0.00949 µM) 90.6% | viability, T/C (second compound 0.0316 µM, first compound 0.03 µM) 65.4% | viability, T/C (second compound 0.0316 µM, first compound 0.0949 µM) 58.1% | viability, T/C (second compound 0.0316 µM, first compound 0.3 µM) 60.2% | viability, T/C (second compound 0.1 µM, first compound 0.000949 µM) 93.2% | viability, T/C (second compound 0.1 µM, first compound 0.003 µM) 98.4% | viability, T/C (second compound 0.1 µM, first compound 0.00949 µM) 84.4% | viability, T/C (second compound 0.1 µM, first compound 0.03 µM) 70.2% | viability, T/C (second compound 0.1 µM, first compound 0.0949 µM) 61.2% | viability, T/C (second compound 0.1 µM, first compound 0.3 µM) 56.9% | viability, T/C (second compound 0.316 µM, first compound 0.000949 µM) 96.5% | viability, T/C (second compound 0.316 µM, first compound 0.003 µM) 92.9% | viability, T/C (second compound 0.316 µM, first compound 0.00949 µM) 90.4% | viability, T/C (second compound 0.316 µM, first compound 0.03 µM) 64.8% | viability, T/C (second compound 0.316 µM, first compound 0.0949 µM) 61.8% | viability, T/C (second compound 0.316 µM, first compound 0.3 µM) 57.9% | viability, T/C (second compound 1 µM, first compound 0.000949 µM) 95% | viability, T/C (second compound 1 µM, first compound 0.003 µM) 99.6% | viability, T/C (second compound 1 µM, first compound 0.00949 µM) 74.7% | viability, T/C (second compound 1 µM, first compound 0.03 µM) 65.2% | viability, T/C (second compound 1 µM, first compound 0.0949 µM) 64.3% | viability, T/C (second compound 1 µM, first compound 0.3 µM) 58.5% | viability, T/C (second compound 3.16 µM, first compound 0.000949 µM) 90.8% | viability, T/C (second compound 3.16 µM, first compound 0.003 µM) 94.1% | viability, T/C (second compound 3.16 µM, first compound 0.00949 µM) 80% | viability, T/C (second compound 3.16 µM, first compound 0.03 µM) 65.2% | viability, T/C (second compound 3.16 µM, first compound 0.0949 µM) 57.6% | viability, T/C (second compound 3.16 µM, first compound 0.3 µM) 63.5% | viability, T/C (second compound 10 µM, first compound 0.000949 µM) 93.9% | viability, T/C (second compound 10 µM, first compound 0.003 µM) 98.8% | viability, T/C (second compound 10 µM, first compound 0.00949 µM) 75.4% | viability, T/C (second compound 10 µM, first compound 0.03 µM) 69.6% | viability, T/C (second compound 10 µM, first compound 0.0949 µM) 65% | viability, T/C (second compound 10 µM, first compound 0.3 µM) 60.4%
< 6.52: pIC50 (second compound 0.0316 µM) | pIC50 (second compound 0.1 µM) | pIC50 (second compound 0.316 µM) | pIC50 (second compound 1 µM) | pIC50 (second compound 3.16 µM) | pIC50 (second compound 10 µM)

C=CC(=O)Nc1cc(Nc2nccc(-c3cn(C)c4ccccc34)n2)c(OC)cc1N(C)CCN(C)C + C=CC(=O)N1CCN(c2nc(OCC3CCCN3C)nc3c(F)c(-c4nc(N)cc(C)c4C(F)(F)F)c(Cl)cc23)C(C)C1
< 6.00: pIC50 (second compound 0.00316 µM) | pIC50 (second compound 0.01 µM) | pIC50 (second compound 0.0316 µM) | pIC50 (second compound 0.1 µM) | pIC50 (second compound 0.316 µM) | pIC50 (second compound 1 µM)
inactive: viability, T/C [25] 92.7% | viability, T/C [26] 98.3% | viability, T/C [27] 101% | viability, T/C [28] 95% | viability, T/C [29] 92.9% | viability, T/C [30] 99.8% | viability, T/C [31] 91.9% | viability, T/C [32] 92% | viability, T/C [33] 91.8% | viability, T/C [34] 91.6% | viability, T/C [35] 93.8% | viability, T/C [36] 91% | viability, T/C [1] 98.3% | viability, T/C [2] 101% | viability, T/C [3] 98.1% | viability, T/C [4] 92.1% | viability, T/C [5] 92.9% | viability, T/C [6] 88.5% | viability, T/C [7] 100% | viability, T/C [8] 88.6% | viability, T/C [9] 96% | viability, T/C [10] 92.9% | viability, T/C [11] 109% | viability, T/C [12] 90.7% | viability, T/C [13] 101% | viability, T/C [14] 95.1% | viability, T/C [15] 92.3% | viability, T/C [16] 95.6% | viability, T/C [17] 93.9% | viability, T/C [18] 91.6% | viability, T/C [19] 96.6% | viability, T/C [20] 90.1% | viability, T/C [21] 90.3% | viability, T/C [22] 96% | viability, T/C [23] 93.4% | viability, T/C [24] 91.7%

O=C(c1ccc(F)c(F)c1Nc1ccc(I)cc1F)N1CC(O)([C@@H]2CCCCN2)C1 + C=CC(=O)N1CCN(c2nc(OCC3CCCN3C)nc3c(F)c(-c4nc(N)cc(C)c4C(F)(F)F)c(Cl)cc23)C(C)C1
inactive: viability, T/C [25] 91.2% | viability, T/C [26] 87.7% | viability, T/C [27] 64.6% | viability, T/C [28] 44.3% | viability, T/C [29] 21.8% | viability, T/C [31] 93.1% | viability, T/C [32] 86.5% | viability, T/C [33] 64.6% | viability, T/C [34] 40.9% | viability, T/C [35] 21.7% | viability, T/C [1] 99.3% | viability, T/C [2] 79.5% | viability, T/C [3] 64.2% | viability, T/C [4] 46.3% | viability, T/C [5] 19% | viability, T/C [7] 84.1% | viability, T/C [8] 90.1% | viability, T/C [9] 68.3% | viability, T/C [10] 52.4% | viability, T/C [11] 20.7% | viability, T/C [13] 90.5% | viability, T/C [14] 88.5% | viability, T/C [15] 66.2% | viability, T/C [16] 47.7% | viability, T/C [17] 22% | viability, T/C [19] 88.9% | viability, T/C [20] 93.5% | viability, T/C [21] 66.1% | viability, T/C [22] 45.5% | viability, T/C [23] 23.1%
7.13: pIC50 (second compound 0.00316 µM)
active: viability, T/C [30] 3.64% | viability, T/C [36] 4.13% | viability, T/C [6] 4.19% | viability, T/C [12] 4.3% | viability, T/C [18] 4.23% | viability, T/C [24] 4.2%
7.08: pIC50 (second compound 0.316 µM)
7.17: pIC50 (second compound 0.01 µM) | pIC50 (second compound 0.0316 µM)
7.00: pIC50 (second compound 0.1 µM)
7.09: pIC50 (second compound 1 µM)
